Like-named read-outs stand apart in the source and are kept apart here. Starred links: 1 amine or outer side, 2 acyl side, 3 side chain; linkers in the order of their positions; H or OH if unused. Non-standard residues stand in square brackets, D forms with d. Primed or numbered codes have the meaning given here. No end group written: not given here. K(Palm) = CCCCCCCCCCCCCCCC(=O)NCCCC[C@H](N[*:1])C(=O)[*:2]; PEG2′ = short PEG2 spacer in the linker
What was measured:
PTH receptor = target: T1, PTH receptor (Homo sapiens, UniProt Q03431); experiment: cAMP signaling in SaOS2/glosensor (SGS-72) cells; type: cell-based; details: for Max %: maximum cAMP response relative to PTH(1-34)-2009
T1 construct: endogenous in cells; host or cells: SaOS2-derived SGS-72 cells (human osteoblast line stably transfected with the GloSensor cAMP reporter)
T1 sequence (Q03431 27-593): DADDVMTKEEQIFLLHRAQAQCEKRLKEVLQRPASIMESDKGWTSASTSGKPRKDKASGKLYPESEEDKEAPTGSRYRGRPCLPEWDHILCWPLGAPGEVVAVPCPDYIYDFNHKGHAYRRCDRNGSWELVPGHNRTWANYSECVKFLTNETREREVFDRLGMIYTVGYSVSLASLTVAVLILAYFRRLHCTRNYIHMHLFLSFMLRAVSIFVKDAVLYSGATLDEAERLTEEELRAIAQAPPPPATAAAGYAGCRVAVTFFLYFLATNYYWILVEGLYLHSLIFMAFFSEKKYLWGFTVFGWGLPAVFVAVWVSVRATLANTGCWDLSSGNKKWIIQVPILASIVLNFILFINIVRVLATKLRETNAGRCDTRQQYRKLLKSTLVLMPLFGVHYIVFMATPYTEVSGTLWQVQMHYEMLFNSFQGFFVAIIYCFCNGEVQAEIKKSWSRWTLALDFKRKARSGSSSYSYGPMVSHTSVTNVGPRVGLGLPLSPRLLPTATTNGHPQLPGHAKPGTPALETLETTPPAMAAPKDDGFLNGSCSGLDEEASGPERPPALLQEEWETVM
Procedure: The cells are derived from the human osteoblast cell line, SaOS2 by stable transfection with a glosensor cAMP reporter.
cAMP signaling was assessed in an SaOS2-derived cell line stably expressing the luciferase-based GloSensor™ cAMP reporter (Hattersley et al., Paper presented at: Novel Signaling Mechanisms and Bone Cell Biology 2014; Binkowski et al., Methods in Molecular Biology 756:263-271, 2011). The cells were seeded into 96-well white plates and were assayed 24 to 48 hours post-confluency. Assays were performed at room temperature in CO2-independent culture media (Life Technologies, Corp., Carlsbad, CA) containing 0.1% BSA (CIDB). […] The time at which maximum luminescence (cps) observed with agonist alone, typically at 10-20 minutes after agonist addition, was used to obtain data from wells containing antagonist with or without agonist, to thus generate antagonist ligand dose-response curves. The resulting cps values were then plotted against ligand concentration using GraphPad Prism 7.0 software and a four-parameter logistics curve fitting equation, which yielded parameters of inhibitory potency (pIC50).

[1] = Blood ionized calcium in mice after injection; type: in vivo; details: single dose 10 nmol/kg i.v.
Description: Data are means±SEM; n=6 mice per group.
In Vivo Testing of the Polypeptides Wild-type, ca. 10-week old male C57BL/6J mice were purchased from the Charles River Laboratories (Wilmington, Massachusetts, USA). The origin and method of breeding of Col1-H223R “Jansen's” transgenic mice is described by Calvi et al. (J. Clin. Invest. 107:277-286, 2001). Mice were maintained in facilities operated by the Center for Comparative Research of the Massachusetts General Hospital, and acclimated in the facilities for seven days prior to being used for study. All experimental procedures were approved by the MGH Institutional Animal Care and Use Committee (IACUC). In each study, animals were assigned randomly to treatment groups. Where possible, power calculations established that the number of animals used per study group was sufficient to detect statistically significant differences in intended primary experimental outcomes (i.e., changes in serum Ca and Pi).

[2] = mouse, in vivo, sc
Procedure: (§1) Mice were injected IV via the tail vein or subcutaneously with ligands in vehicle (0.05% Tween 80; 10 mM citrate; 150 mM NaCl; pH 5.0) to give the intended final ligand dose (e.g. 50 nmol/kg body weight). At times immediately before (t=0) and after injection, tail vein blood was collected and analyzed for concentrations of administered peptides or blood ionized calcium (Ca^2+) measured with a RAPIDLAB 348 analyzer (SIEMENS Healthcare Diagnostic, United Kingdom).

in vivo = details: mouse, sc
Procedure: as §1

[3] = Pharmacokinetic properties in mice, hPTH(1-34) ELISA of plasma
Procedure: as §1

[4] = Hypophosphatemic effect (total inorganic phosphorus) in mice; type: in vivo; details: as compared to PTH(1-34)
Description: Tail vein blood and spot urine were collected just prior to injection (t=0) and at the indicated times after injection.
Peptide doses for FIGS. 4A and 4B were 10 nmol/kg, while peptide doses were 50 nmol/kg for FIGS. 4C and 4D. T-test vs. vehicle: *p<0.05; PTH vs. Palm: +p<0.05. Mice were CD1 females, age 10 weeks. Data are means±SEM, n=6.

Max % (PTH receptor; means ± SEM) [%] | total area-under-the-curve [2] [µM·h] | half-life (in vivo) [min] | AUC (in vivo; 10 nmol/kg) [µM·h] | half-life (in vivo; 10 nmol/kg) [min] | pEC50 (log molar concentration to attain 50% of maximum response observed with PTH(1-34)-2009) (PTH receptor; SaOS2/glosensor (SGS-72) cells, means ± SEM, n = 5) | EC50 (PTH receptor; SaOS2/glosensor (SGS-72) cells, read-out: EC50, concentration in nM shown below pEC50 (converted)) [nM] | Compound | duration of increase of blood Ca2+ levels [1] | Cmax ([3]; mouse, plasma, sc, 10 nmol/kg) [nM] | hypophosphatemic effects [4] | total area-under-the-curve ([3]; mice, single injection 10 mnol/kg s.c.) [µM·h] | AUC ([3]; mouse, plasma, sc, 10 nmol/kg) [µM·h] | Tmax ([3]; mouse, plasma, sc, 10 nmol/kg) [min] | half-life ([3]; mouse, plasma, sc, 10 nmol/kg) [min]
100 ± 0 | 0.00043 | 12 | 0.00043 | 12 | – | – | CC[C@H](C)[C@H](NC(=O)[C@H](CCC(=O)O)NC(=O)[C@H](CO)NC(=O)[C@@H](NC(=O)[C@@H](N)CO)C(C)C)C(=O)N[C@@H](CCC(N)=O)C(=O)N[C@@H](CC(C)C)C(=O)N[C@@H](CCSC)C(=O)N[C@@H](Cc1cnc[nH]1)C(=O)N[C@@H](CC(N)=O)C(=O)N[C@@H](CC(C)C)C(=O)NCC(=O)N[C@@H](CCCCN)C(=O)N[C@@H](Cc1cnc[nH]1)C(=O)N[C@@H](CC(C)C)C(=O)N[C@@H](CC(N)=O)C(=O)N[C@@H](CO)C(=O)N[C@@H](CCSC)C(=O)N[C@@H](CCC(=O)O)C(=O)N[C@@H](CCCNC(=N)N)C(=O)N[C@H](C(=O)N[C@@H](CCC(=O)O)C(=O)N[C@@H](Cc1c[nH]c2ccccc12)C(=O)N[C@@H](CC(C)C)C(=O)N[C@@H](CCCNC(=N)N)C(=O)N[C@@H](CCCCN)C(=O)N[C@@H](CCCCN)C(=O)N[C@@H](CC(C)C)C(=O)N[C@@H](CCC(N)=O)C(=O)N[C@@H](CC(=O)O)C(=O)N[C@H](C(=O)N[C@@H](Cc1cnc[nH]1)C(=O)N[C@@H](CC(N)=O)C(=O)N[C@@H](Cc1ccccc1)C(N)=O)C(C)C)C(C)C [PTH(1-34)-2009, PTH(1-34)] | ≤ 4 h | 0.65 | – | – | – | – | –
– | – | – | – | – | – | – | CCCCCCCCCCCCCCCC(=O)NCCCC[C@H](NC(=O)[C@H](CCC(=O)O)NC(=O)[C@H](Cc1ccc(O)cc1)NC(=O)[C@H](CCC(=O)O)NC(=O)COCCOCCNC(=O)[C@H](Cc1ccccc1)NC(=O)[C@H](CC(N)=O)NC(=O)[C@H](Cc1c[nH]cn1)NC(=O)[C@@H](NC(=O)[C@H](CC(=O)O)NC(=O)[C@H](CCC(N)=O)NC(=O)[C@H](CC(C)C)NC(=O)[C@H](CCCCN)NC(=O)[C@H](CCCCN)NC(=O)[C@H](CCCNC(=N)N)NC(=O)[C@H](CC(C)C)NC(=O)[C@H](Cc1c[nH]c2ccccc12)NC(=O)[C@H](CCC(=O)O)NC(=O)[C@@H](NC(=O)[C@H](CCCNC(=N)N)NC(=O)[C@H](CCC(=O)O)NC(=O)[C@H](CCSC)NC(=O)[C@H](CO)NC(=O)[C@H](CC(N)=O)NC(=O)[C@H](CC(C)C)NC(=O)[C@H](Cc1c[nH]cn1)NC(=O)[C@H](CCCCN)NC(=O)CNC(=O)[C@H](CC(C)C)NC(=O)[C@H](CC(N)=O)NC(=O)[C@H](Cc1c[nH]cn1)NC(=O)[C@H](CCSC)NC(=O)[C@H](CC(C)C)NC(=O)[C@H](CCC(N)=O)NC(=O)[C@@H](NC(=O)[C@H](CCC(=O)O)NC(=O)[C@H](CO)NC(=O)[C@@H](NC(=O)[C@@H](N)CO)C(C)C)[C@@H](C)CC)C(C)C)C(C)C)C(=O)N[C@@H](CCC(=O)O)C(=O)N[C@@H](Cc1ccc(O)cc1)C(=O)N[C@@H](CCC(=O)O)C(N)=O [Palm-PTH(1-34)-2027, Palm-PTH(1-34)] | at least 24 hours | 28.1 | prolonged hypophosphatemic effects | 0.116 | 0.116 | 60 | 114
77 ± 8 | – | – | – | – | 8.72 ± 0.15 | 1.91 | W1-Palm-PTH(1-34) (WVSEIQLMHNLGKHLNSMERVEWLRKKLQDVHNF[PEG2′]EYE-{K(Palm)-Glu-Tyr-Glu-NH2}) [Trp1-Palm-PTH(1-34)-2029] | – | – | – | – | – | – | –

Source: patent US11975050B2, “Parathyroid hormone polypeptide conjugates and methods of their use” (The General Hospital Corporation, priority 2018, dated 2024)
